# In PubChem BioAssay (NCI):
#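 Each compound was tested at five concentrations against cells in 96-well plates for 48 hours. TGI: concentration producing complete growth inhibition.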
# Test system: SK-MEL-28 melanoma
# Experiment: inhibition of tumour cell growth, NCI panel, 48 h
row,Structure (SMILES),TGI
1,C=CCOC(C)n1c(C)cc(=O)n(C(C)OCC=C)c1=O (stereo unspecified),> 100 µM
2,O=C(c1ccccc1)N1CCN2CCN=C(c3ccccc3)C21c1ccccc1 (stereo unspecified),> 100 µM
3,CCCCCCCCCCCCCCCC/C(C(=O)OC)=C(/O)C(=O)OCC,> 100 µM
4,Nc1nc(-c2ccco2)cc(-c2ccco2)n1,> 100 µM

# Test system: SK-MEL-5 melanoma
# Experiment: inhibition of tumour cell growth, NCI panel, 48 h
row,Structure (SMILES),TGI
1,C=CCOC(C)n1c(C)cc(=O)n(C(C)OCC=C)c1=O (stereo unspecified),> 100 µM
2,O=C(c1ccccc1)N1CCN2CCN=C(c3ccccc3)C21c1ccccc1 (stereo unspecified),> 100 µM
3,CCCCCCCCCCCCCCCC/C(C(=O)OC)=C(/O)C(=O)OCC,> 100 µM
4,Nc1nc(-c2ccco2)cc(-c2ccco2)n1,> 100 µM

# Test system: SK-OV-3 ovarian
# Experiment: inhibition of tumour cell growth, NCI panel, 48 h
row,Structure (SMILES),TGI
1,C=CCOC(C)n1c(C)cc(=O)n(C(C)OCC=C)c1=O (stereo unspecified),> 100 µM
2,O=C(c1ccccc1)N1CCN2CCN=C(c3ccccc3)C21c1ccccc1 (stereo unspecified),> 100 µM
3,CCCCCCCCCCCCCCCC/C(C(=O)OC)=C(/O)C(=O)OCC,> 100 µM

# Test system: SN12C renal
# Experiment: inhibition of tumour cell growth, NCI panel, 48 h
row,Structure (SMILES),TGI
1,C=CCOC(C)n1c(C)cc(=O)n(C(C)OCC=C)c1=O (stereo unspecified),> 100 µM
2,CCCCCCCCCCCCCCCC/C(C(=O)OC)=C(/O)C(=O)OCC,> 100 µM
3,Nc1nc(-c2ccco2)cc(-c2ccco2)n1,> 100 µM

# Test system: SNB-19 CNS
# Experiment: inhibition of tumour cell growth, NCI panel, 48 h
row,Structure (SMILES),TGI
1,C=CCOC(C)n1c(C)cc(=O)n(C(C)OCC=C)c1=O (stereo unspecified),> 100 µM
2,O=C(c1ccccc1)N1CCN2CCN=C(c3ccccc3)C21c1ccccc1 (stereo unspecified),> 100 µM
3,CCCCCCCCCCCCCCCC/C(C(=O)OC)=C(/O)C(=O)OCC,> 100 µM
4,Nc1nc(-c2ccco2)cc(-c2ccco2)n1,> 100 µM

# Test system: SNB-75 CNS
# Experiment: inhibition of tumour cell growth, NCI panel, 48 h
row,Structure (SMILES),TGI
1,C=CCOC(C)n1c(C)cc(=O)n(C(C)OCC=C)c1=O (stereo unspecified),> 100 µM
2,O=C(c1ccccc1)N1CCN2CCN=C(c3ccccc3)C21c1ccccc1 (stereo unspecified),> 100 µM
3,CCCCCCCCCCCCCCCC/C(C(=O)OC)=C(/O)C(=O)OCC,> 100 µM
4,Nc1nc(-c2ccco2)cc(-c2ccco2)n1,> 100 µM

# Test system: SNB-78 CNS
# Experiment: inhibition of tumour cell growth, NCI panel, 48 h
row,Structure (SMILES),TGI
1,C=CCOC(C)n1c(C)cc(=O)n(C(C)OCC=C)c1=O (stereo unspecified),> 100 µM
2,O=C(c1ccccc1)N1CCN2CCN=C(c3ccccc3)C21c1ccccc1 (stereo unspecified),> 100 µM
3,CCCCCCCCCCCCCCCC/C(C(=O)OC)=C(/O)C(=O)OCC,> 100 µM

# Test system: SR leukemia
# Experiment: inhibition of tumour cell growth, NCI panel, 48 h
row,Structure (SMILES),TGI
1,C=CCOC(C)n1c(C)cc(=O)n(C(C)OCC=C)c1=O (stereo unspecified),> 100 µM
2,CCCCCCCCCCCCCCCC/C(C(=O)OC)=C(/O)C(=O)OCC,> 100 µM
3,Nc1nc(-c2ccco2)cc(-c2ccco2)n1,> 100 µM

# Test system: SW-620 colon
# Experiment: inhibition of tumour cell growth, NCI panel, 48 h
row,Structure (SMILES),TGI
1,C=CCOC(C)n1c(C)cc(=O)n(C(C)OCC=C)c1=O (stereo unspecified),> 100 µM
2,O=C(c1ccccc1)N1CCN2CCN=C(c3ccccc3)C21c1ccccc1 (stereo unspecified),> 100 µM
3,CCCCCCCCCCCCCCCC/C(C(=O)OC)=C(/O)C(=O)OCC,> 100 µM
4,Nc1nc(-c2ccco2)cc(-c2ccco2)n1,> 100 µM

# Test system: TK-10 renal
# Experiment: inhibition of tumour cell growth, NCI panel, 48 h
row,Structure (SMILES),TGI
1,O=C(c1ccccc1)N1CCN2CCN=C(c3ccccc3)C21c1ccccc1 (stereo unspecified),> 100 µM
2,CCCCCCCCCCCCCCCC/C(C(=O)OC)=C(/O)C(=O)OCC,> 100 µM
3,Nc1nc(-c2ccco2)cc(-c2ccco2)n1,> 100 µM

# Test system: U251 CNS
# Experiment: inhibition of tumour cell growth, NCI panel, 48 h
row,Structure (SMILES),TGI
1,C=CCOC(C)n1c(C)cc(=O)n(C(C)OCC=C)c1=O (stereo unspecified),> 100 µM
2,O=C(c1ccccc1)N1CCN2CCN=C(c3ccccc3)C21c1ccccc1 (stereo unspecified),> 100 µM
3,CCCCCCCCCCCCCCCC/C(C(=O)OC)=C(/O)C(=O)OCC,> 100 µM
4,Nc1nc(-c2ccco2)cc(-c2ccco2)n1,> 100 µM

# Test system: UACC-257 melanoma
# Experiment: inhibition of tumour cell growth, NCI panel, 48 h
row,Structure (SMILES),TGI
1,C=CCOC(C)n1c(C)cc(=O)n(C(C)OCC=C)c1=O (stereo unspecified),> 100 µM
2,O=C(c1ccccc1)N1CCN2CCN=C(c3ccccc3)C21c1ccccc1 (stereo unspecified),> 100 µM
3,CCCCCCCCCCCCCCCC/C(C(=O)OC)=C(/O)C(=O)OCC,> 100 µM

# Test system: UACC-62 melanoma
# Experiment: inhibition of tumour cell growth, NCI panel, 48 h
row,Structure (SMILES),TGI
1,C=CCOC(C)n1c(C)cc(=O)n(C(C)OCC=C)c1=O (stereo unspecified),> 100 µM
2,O=C(c1ccccc1)N1CCN2CCN=C(c3ccccc3)C21c1ccccc1 (stereo unspecified),> 100 µM
3,CCCCCCCCCCCCCCCC/C(C(=O)OC)=C(/O)C(=O)OCC,> 100 µM
4,Nc1nc(-c2ccco2)cc(-c2ccco2)n1,> 100 µM

# Test system: UO-31 renal
# Experiment: inhibition of tumour cell growth, NCI panel, 48 h
row,Structure (SMILES),TGI
1,C=CCOC(C)n1c(C)cc(=O)n(C(C)OCC=C)c1=O (stereo unspecified),> 100 µM
2,O=C(c1ccccc1)N1CCN2CCN=C(c3ccccc3)C21c1ccccc1 (stereo unspecified),> 100 µM
3,CCCCCCCCCCCCCCCC/C(C(=O)OC)=C(/O)C(=O)OCC,> 100 µM
4,Nc1nc(-c2ccco2)cc(-c2ccco2)n1,> 100 µM

# Test system: XF 498 CNS
# Experiment: inhibition of tumour cell growth, NCI panel, 48 h
row,Structure (SMILES),TGI
1,Nc1nc(-c2ccco2)cc(-c2ccco2)n1,> 100 µM
